Assay results taken from patent US20080153819A1, “METHODS FOR TREATING MACULAR EDEMA AND PATHOLOGIC OCULAR ANGIOGENESIS USING A NEUROPROTECTIVE AGENT AND A RECEPTOR TYROSINE KINASE INHIBITOR” (priority 2006, published 2008).

What was measured:
[1] = test system: preretinal neovascularization (NV); assay: Rat model of oxygen-induced retinopathy (OIR), single intravitreal injection; format: in vivo; conditions: for % Inhibition (vs. vehicle-injected eye) of preretinal NV / Median NV (clockhour score): 5 μl intravitreal injection; for % Inhibition (vs. vehicle-injected eye) of preretinal NV: Day 14/6
From the text: METHODS: Pregnant Sprague-Dawley rats were received at 14 days gestation and subsequently gave birth on Day 22±1 of gestation. Immediately following parturition, pups were pooled and randomized into separate litters (n=17 pups/litter), placed into separate shoebox cages inside oxygen delivery chamber, and subjected to an oxygen-exposure profile from Day 0-14 postpartum. Litters were then placed into room air from Day 14/0 through Day 14/6 (days 14-20 postpartum). Additionally on Day 14/0, each pup was randomly assigned as an oxygen-exposed control or into various treatment groups. For those randomized into an injection treatment group: one eye received a 5 μl intravitreal injection of 0.1%, 0.3%, 0.6%, or 1% RTKi and the contralateral eye received a 5 μl intravitreal injection of vehicle. At Day 14/6 (20 days postpartum), all animals in both studies were euthanized. Immediately following euthanasia, retinas from all rat pups were harvested, fixed in 10% neutral buffered formalin for 24 hours, subjected to ADPase staining, and fixed onto slides as whole mounts. Digital images were acquired from each retinal flat mount that was adequately prepared. Computerized image analysis was used to obtain a NV clockhour score from each readable sample. Each clockhour out of 12 total per retina was assessed for the presence or absence of preretinal NV. Statistical comparisons using median scores for NV clockhours from each treatment group were utilized in nonparametric analyses. Each noninjected pup represented one NV score by taking the average value of both eyes and was used in comparisons against each dosage group. Because the pups were randomly assigned and no difference was observed between oxygen-exposed control pups from all litters, the NV scores were combined for all treatment groups. P≦0.05 was considered statistically significant.

[2] = test system: preretinal neovascularization (NV); assay: Rat OIR model, oral gavage; format: in vivo
Method: Immediately following euthanasia, retinas from all rat pups were harvested, fixed in 10% neutral buffered formalin for 24 hours, subjected to ADPase staining, and fixed onto slides as whole mounts. Digital images were acquired from each retinal flat mount that was adequately prepared. Computerized image analysis was used to obtain a NV clockhour score from each readable sample. Each clockhour out of 12 total per retina was assessed for the presence or absence of preretinal NV. Statistical comparisons using median scores for NV clockhours from each treatment group were utilized in nonparametric analyses. Each noninjected pup represented one NV score by taking the average value of both eyes and was used in comparisons against each dosage group. Because the pups were randomly assigned and no difference was observed between oxygen-exposed control pups from all litters, the NV scores were combined for all treatment groups. P≦0.05 was considered statistically significant. METHODS: Pregnant Sprague-Dawley rats were received at 14 days gestation and subsequently gave birth on Day 22±1 of gestation. Immediately following parturition, pups were pooled and randomized into separate litters (n=17 pups/litter), placed into separate shoebox cages inside oxygen delivery chamber, and subjected to an oxygen-exposure profile from Day 0 to Day 14 postpartum. Litters were then placed into room air from Day 14/0 through Day 14/6 (days 14-20 postpartum). Additionally on Day 14/0, each pup was randomly assigned as oxygen-exposed controls, vehicle treated, or drug-treated at 1.5, 5, 10 mg/kg, p.o., BID. At Day 14/6 (20 days postpartum), all animals in both studies were euthanized and retina whole mounts were prepared as described in Example 1 above.

[3] = test system: laser-induced choroidal neovascularization (CNV); assay: Laser-induced choroidal neovascularization (CNV) in the mouse, prevention, intravitreal injection; format: in vivo
Method: (§1) METHODS: CNV was generated by laser-induced rupture of Bruch's membrane. Briefly, 4 to 5 week old male C57BL/6J mice were anesthetized using intraperitoneal administration of ketamine hydrochloride (100 mg/kg) and xylazine (5 mg/kg) and the pupils of both eyes dilated with topical ocular instillation of 1% tropicamide and 2.5% Mydfin®. One drop of topical cellulose (Gonioscopic®) was used to lubricate the cornea. A hand-held cover slip was applied to the cornea and used as a contact lens to aid visualization of the fundus. Three to four retinal burns were placed in randomly assigned eye (right or left eye for each mouse) using the Alcon 532 nm EyeLite laser with a slit lamp delivery system. The laser burns were used to generate a rupture in Bruch's membrane, which was indicated opthalmoscopically by the formation of a bubble under the retina. Only mice with laser burns that produced three bubbles per eye were included in the study. Burns were typically placed at the 3, 6, 9 or 12 o'clock positions in the posterior pole of the retina, avoiding the branch retinal arteries and veins.
Each mouse was randomly assigned into one of the following treatment groups: noninjected controls, sham-injected controls, vehicle-injected mice, or one of three RTKi-injected groups. […]

[4] = test system: existing laser-induced choroidal neovascularization (CNV); assay: Regression of existing laser-induced CNV in the mouse, intravitreal injection at 7 days post-laser; format: in vivo
Method: as §1, with “veins. […]” for “veins.”
METHODS: CNV was generated by laser-induced rupture of Bruch's membrane as described above in Example 3. […] Choroidal flat mounts were analyzed as described above in Example 3.

[5] = test system: laser-induced choroidal neovascularization (CNV); assay: Laser-induced CNV in the mouse, oral gavage, prevention paradigm; format: in vivo
[6] = test system: existing laser-induced choroidal neovascularization (CNV); assay: Laser-induced CNV in the mouse, oral gavage, regression paradigm; format: in vivo; conditions: 3 mg/kg/day p.o. from day 7 after laser
[7] = test system: diabetes-induced retinal vascular permeability; assay: Diabetes-induced retinal vascular permeability in the STZ rat model, oral gavage; format: in vivo
Method: METHODS: Diabetes was induced in male Long-Evans rats with 65 mg/kg streptozotocin (STZ) after an overnight fast. Upon confirmation of diabetes (blood glucose >250 mg/dl), treatment was initiated by oral gavage. Non-diabetic (NDM) and diabetic (DM) rats received oral gavage of either vehicle or RTK inhibitor at 1.5 or 5 mg/kg/d BID. After 2 weeks, jugular vein catheters were implanted 1 day prior to experimentation for the infusion of indicator dye. Retinal vascular permeability, RVP, was measured using Evan's blue albumin permeation (45 mg/kg) after a 2 hour circulation period.

diabetic macular edema = conditions: topical ocular administration, Japanese patients with diabetic macular edema; cited from earlier work
exudative AMD = conditions: Phase III, patients treated, at 24 months, up to; cited from earlier work

Cc1ccc(F)c(NC(=O)Nc2ccc(-c3cccc4[nH]nc(N)c34)cc2)c1 [Compound 86, N-[4-[3-amino-1H-indazol-4-yl]phenyl]-N′-(2-fluoro-5-methylphenyl)urea]
% Inhibition (vs. vehicle-injected eye) of preretinal NV ([1]; 0.1% RTKi): 37%
efficacy against preretinal NV (in words) ([1]; 0.1% treated eyes, intravitreal): Efficacy was not observed
Median NV (clockhour score) ([1]; 0.3% RTKi): 0
% Inhibition (vs. vehicle-injected eye) of preretinal NV ([1]; 0.3% RTKi): 100%
Median NV (clockhour score) ([1]; 0.6% RTKi): 0
% Inhibition (vs. vehicle-injected eye) of preretinal NV ([1]; 0.6% RTKi): 100%
Median NV (clockhour score) ([1]; 1% RTKi): 0
% Inhibition (vs. vehicle-injected eye) of preretinal NV ([1]; 1% RTKi): 100%
effect on preretinal NV (in words, FIG. 1) ([1]; single intravitreal injection): inhibits preretinal neovascularization (NV)
% Inhibition (vs vehicle-injected eye) of preretinal NV ([2]; 3 mg/kg RTKi in PEG 400, p.o.): −1.4%
Median NV (clockhour score) ([2]; 3 mg/kg RTKi in PEG 400, p.o.): 7.5
decrease in NV (in words) ([2]; 3 mg/kg/day p.o.): did not have a significant decrease in NV
% Inhibition (vs vehicle-injected eye) of preretinal NV ([2]; 20 mg/kg RTKi in PEG 400, p.o.): 100%
Median NV (clockhour score) ([2]; 20 mg/kg RTKi in PEG 400, p.o.): 0
inhibition of preretinal NV (in words) ([2]; 20 mg/kg/day p.o.): complete inhibition of preretinal NV
effect on preretinal NV (in words, FIG. 2) ([2]; oral gavage): prevents preretinal neovascularization (NV)
difference in CNV versus vehicle injected eyes (in words) ([3]; 0.3% RTKi, 5 ul intravitreal): marginal statistical difference
effect on laser-induced CNV (in words, FIG. 3) ([3]; single intravitreal injection): inhibits laser-induced choroidal neovascularization (CNV)
reduction of median CNV area at 14 days compared to CNV present at 7 days post-laser ([4]; 5 μl 3% RTKi intravitreal at day 7): 41.0%
effect on existing laser-induced CNV (in words, FIG. 4) ([4]; single intravitreal injection): induces regression of existing laser-induced choroidal neovascularization (CNV)
inhibition of CNV (in words) ([5]; 20 mg/kg/d p.o., prevention paradigm): complete inhibition of CNV
effect on laser-induced CNV (in words, FIG. 6) ([5]; oral gavage): inhibits laser-induced choroidal neovascularization (CNV)
regression of existing CNV (in words) [6]: did not show a significant regression of existing CNV
RVP in non-diabetic rats (in words) ([7]; NDM treated at 5 mg/kg/d oral gavage): unchanged
Blood glucose levels and body weights, DM control versus DM treatment groups ([7]; oral gavage, DM rats): not different
systemic or ERG side effects ([7]; oral, NDM and DM groups): no observed systemic or ERG side effects
tolerability ([7]; oral, NDM and DM groups): well tolerated

CC(C)NCC(O)COc1ccc(CCOCC2CC2)cc1 (centres unmarked) [betaxolol]
effect on vision (in words) (diabetic macular edema): stabilized vision

B1: ranibizumab (antibody, chains of the INN, looked up, V domains shown)
VH: EVQLVESGGGLVQPGGSLRLSCAASGYDFTHYGMNWVRQAPGKGLEWVGWINTYTGEPTYAADFKRRFTFSLDTSKSTAYLQMNSLRAEDTAVYYCAKYPYYYGTSHWYFDVWGQGTLVTVSS
VL: DIQLTQSPSSLSASVGDRVTITCSASQDISNYLNWYQQKPGKAPKVLIYFTSSLHSGVPSRFSGSGSGTDFTLTISSLQPEDFATYYCQQYSTVPWTFGQGTKVEIK
modifications: Fab
patients with improved visual acuity (exudative AMD): 35-40%
